# Measured values reported in publication PMC9094411 (2022).
# System: E. coli SugE guanidine-II riboswitch aptamer, 47mer FRET construct (C1G) (RNA, riboswitch, 5-aminoallyl-uridine at 3 (dye conjugated)) GUUUGCAGGACGACCUGCAAACGCCUCUUUUCACCGGGGACGGCCCC
# Assay: smFRET histograms, immobilised RNA (kissing-loop state population)
# Conditions: Mg2+ 1 mM, 50 mM Tris/Cl pH 7.4, 22 °C, imaging buffer, 30 nM-30 mM ligand
SMILES,binding (K-state 66% at 30 mM),"binding (K-state 66% at 30 mM buffer, highest tested 30 mM, no K-state shift, RNA destabilised (U-state 35%))"
N=C(N)N,yes,–
NC(N)=O,–,no
